Results reported in patent US4118561A, “7-(Substituted)-7H-pyrrolo[3,2-f]quinazoline-1,3-diamines” (priority 1977, dated 1978).
Values after ≈ are worked out from the molar mass of the structure shown. Like-named read-outs stand apart in the source and are kept apart here.

Columns and labels:
S. paratyphi 11737 = assay: In vitro antibacterial activity (MIC), S. paratyphi 11737; format: cell-based; conditions: Salmonella enterica, 18 h
Escherichia coli W-102 = assay: In vivo antibacterial synergism (mouse), Escherichia coli W-102; design: species or system Escherichia coli (infected mice, CD-1); conditions: mice, p.o.; for PD50 SM/Cpd. (compound part): 0 hours; for PD50 SM/Cpd. (compound part) / CD50 SM/Cpd. (compound part): 20160 min; for CD50 SM/Cpd. (compound part): 6 hours
Experimental: (§1) The test agents are weighed, suspended in 0.5% aqueous carboxymethyl cellulose, homogenized (glass tissue grinder) and diluted according to the design of the experiment. Mice (male, 18±1 g., CD-1 strain) are pre-weighed, pooled, infected at random intraperitoneally with a 0.5 ml. standardized suspension (LD95 ±5%) of the bacterial organism in 5% gastric mucin and treated at random with single doses of the test agents either at the time of infection or six hours after infecting. The treated groups consist of ten mice per dosage level. Deaths are recorded daily for 14 days and the PD50 (mice are treated at time of infection) and CD50 (mice are treated six hours after infecting) values are calculated by the method of Reed and Muench [Amer. J. Hyg., 27, 493 (1938)].

[1] = tested on: Plasmodium berghei KBG 173; assay: Antimalarial blood schizonticidal test in mice; format: in vivo, Plasmodium berghei (infected ICR/HA Swiss mice); design: ΔMST (increase in mean survival time): unit: days; conditions: s.c.
In short: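 ICR/HA Swiss mice (18–22 g) infected i.p. with 4 × 10^7 P. berghei KBG 173-parasitized cells; single subcutaneous dose in peanut oil at 72 h post-infection, graded dosages. Survival followed 60 days; 60-day survivors counted cured, deaths before day 6 counted toxic; mean survival time compared with untreated controls.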

Proteus mirabilis 3 = assay: In vivo antibacterial synergism (mouse), Proteus mirabilis 3; design: species or system Proteus mirabilis (infected mice, CD-1); conditions: mice, p.o.; for PD50 SM/Cpd. (compound part): 0 hours, 20160 min
Experimental: as §1

S. aureus 53-180 = assay: In vitro antibacterial activity (MIC), S. aureus 53-180; conditions: Staphylococcus aureus, 53180, 18 h
K. pneumoniae 10031 = assay: In vitro antibacterial activity (MIC), K. pneumoniae 10031; conditions: Klebsiella pneumoniae, 10031, 18 h
P. vulgaris 6896 = assay: In vitro antibacterial activity (MIC), P. vulgaris 6896; conditions: Proteus vulgaris, 6896, 18 h
Proteus mirabilis 190 = assay: In vivo antibacterial synergism (mouse), Proteus mirabilis 190; design: species or system Proteus mirabilis (infected mice, CD-1); conditions: mice, p.o.; for ED50: Proteus mirabilis, 190, po, 336 h; for PD50 SM/Cpd. (compound part): 0 hours; for PD50 SM/Cpd. (compound part) / CD50 SM/Cpd. (compound part): 20160 min; for CD50 SM/Cpd. (compound part): 6 hours
Experimental: as §1

bacterial infections = assay: Synergism with sulfamethoxazole against bacterial infections in mice, oral; format: in vivo
Experimental: The invention also provides compounds which will potentiate the antibacterial effects of sulfa drugs.
as §1

N. catarrhalis 8193 = assay: In vitro antibacterial activity (MIC), N. catarrhalis 8193; conditions: 18 h
[2] = tested on: lymphocytic leukemia P-388; assay: Activity in mice against lymphocytic leukemia P-388; format: in vivo; conditions: Mus musculus, P388, ip; mice, I.P., 20 mg/kg; read-out: T/C
Proteus vulgaris 347 = assay: In vivo antibacterial synergism (mouse), Proteus vulgaris 347; design: species or system Proteus vulgaris (infected mice, CD-1); conditions: mice, p.o.; for ED50: Proteus vulgaris, 347, po, 336 h; for PD50 SM/Cpd. (compound part): 0 hours; for PD50 SM/Cpd. (compound part) / CD50 SM/Cpd. (compound part): 20160 min; for CD50 SM/Cpd. (compound part): 6 hours
Experimental: as §1

[3] = treated 0 hours after infecting, read-out: PD50 (agent alone)
[4] = treated 6 hours after infecting, read-out: CD50 (agent alone)

SMILES: N#Cc1ccc(Cn2ccc3c4c(N)nc(N)nc4ccc32)cc1 [Example 16, 7-[(4-cyanophenyl)methyl]-7H-pyrrolo[3,2-f]-quinazoline-1,3-diamine]
- MIC (S. paratyphi 11737): 0.488 µg/mL (≈ 1.55 µM)
- ED50 (Escherichia coli W-102; Escherichia coli, W102, po, 336 h, treated 0 hours after infecting, read-out: PD50 (agent alone)): > 800 mg/kg
- PD50 SM/Cpd. (compound part) (Escherichia coli W-102; with SM 3.13 mg. per kg.): 67.8 mg. per kg.
- PD50 SM/Cpd. (compound part) (Escherichia coli W-102; with SM 6.25 mg. per kg.): 53.1 mg. per kg.
- PD50 SM/Cpd. (compound part) (Escherichia coli W-102; with SM 12.5 mg. per kg.): 15.6 mg. per kg.
- PD50 SM/Cpd. (compound part) (Escherichia coli W-102; with SM 25.0 mg. per kg.): 15.9 mg. per kg.
- CD50 SM/Cpd. (compound part) (Escherichia coli W-102; with SM 12.5 mg. per kg.): 50 mg. per kg.
- CD50 SM/Cpd. (compound part) (Escherichia coli W-102; with SM 25 mg. per kg.): 89 mg. per kg.
- CD50 SM/Cpd. (compound part) (Escherichia coli W-102; with SM 50 mg. per kg.): 37 mg. per kg.
- minimal effective dose ([1]; Plasmodium berghei, sc, 1440 h, single dose, 60-day survivors, read-out: Min. Curing Dose): 5 mg/kg
- Cure/Treat at Min. Curing Dose ([1]; at the Min. Curing Dose, 60-day survivors): 1/5
- ΔMST (increase in mean survival time) ([1]; dose 10 mg. per kg.): 8.4
- ED50 (Proteus mirabilis 3; Proteus mirabilis, 3, po, 336 h, treated 0 hours after infecting, read-out: PD50 (agent alone)): 22.7 mg/kg
- PD50 SM/Cpd. (compound part) (Proteus mirabilis 3; with SM 0.78 mg. per kg.): 7.11 mg. per kg.
- PD50 SM/Cpd. (compound part) (Proteus mirabilis 3; with SM 1.56 mg. per kg.): 6.56 mg. per kg.
- PD50 SM/Cpd. (compound part) (Proteus mirabilis 3; with SM 3.13 mg. per kg.): 2.28 mg. per kg.
- PD50 SM/Cpd. (compound part) (Proteus mirabilis 3; with SM 6.25 mg. per kg.): 2.11 mg. per kg.
- MIC (S. aureus 53-180): 0.122 µg/mL (≈ 0.388 µM)
- MIC (K. pneumoniae 10031): 0.061 µg/mL (≈ 0.194 µM)
- MIC (P. vulgaris 6896): 1.95 µg/mL (≈ 6.2 µM)
- ED50 (Proteus mirabilis 190; [3]): 18.6 mg/kg
- ED50 (Proteus mirabilis 190; [4]): 159 mg/kg
- PD50 SM/Cpd. (compound part) (Proteus mirabilis 190; with SM 0.39 mg. per kg.): > 12.50 mg. per kg.
- PD50 SM/Cpd. (compound part) (Proteus mirabilis 190; with SM 0.78 mg. per kg.): 8.78 mg. per kg.
- PD50 SM/Cpd. (compound part) (Proteus mirabilis 190; with SM 1.56 mg. per kg.): 3.39 mg. per kg.
- PD50 SM/Cpd. (compound part) (Proteus mirabilis 190; with SM 3.11 mg. per kg.): 2.44 mg. per kg.
- CD50 SM/Cpd. (compound part) (Proteus mirabilis 190; with SM 0.39 mg. per kg.): > 6.25 mg. per kg.
- CD50 SM/Cpd. (compound part) (Proteus mirabilis 190; with SM 0.78 mg. per kg.): > 6.25 mg. per kg.
- CD50 SM/Cpd. (compound part) (Proteus mirabilis 190; with SM 1.56 mg. per kg.): 4.0 mg. per kg.
- CD50 SM/Cpd. (compound part) (Proteus mirabilis 190; with SM 3.11 mg. per kg.): 2.33 mg. per kg.
- synergistic effect with sulfamethoxazole (bacterial infections): synergistic effect
- MIC (N. catarrhalis 8193): 0.0076 µg/mL (≈ 0.0242 µM)
- response vs control in vivo at 20 mg/kg [2]: 138%
- ED50 (Proteus vulgaris 347; [3]): > 200 mg/kg
- ED50 (Proteus vulgaris 347; [4]): > 400 mg/kg
- PD50 SM/Cpd. (compound part) (Proteus vulgaris 347; with SM 0.78 mg. per kg.): > 12.5 mg. per kg.
- PD50 SM/Cpd. (compound part) (Proteus vulgaris 347; with SM 1.56 mg. per kg.): > 12.5 mg. per kg.
- PD50 SM/Cpd. (compound part) (Proteus vulgaris 347; with SM 3.13 mg. per kg.): 9.67 mg. per kg.
- PD50 SM/Cpd. (compound part) (Proteus vulgaris 347; with SM 6.25 mg. per kg.): 6.25 mg. per kg.
- CD50 SM/Cpd. (compound part) (Proteus vulgaris 347; with SM 3.11 mg. per kg.): 7.28 mg. per kg.
- CD50 SM/Cpd. (compound part) (Proteus vulgaris 347; with SM 6.25 mg. per kg.): 8.83 mg. per kg.
- CD50 SM/Cpd. (compound part) (Proteus vulgaris 347; with SM 12.5 mg. per kg.): 4.66 mg. per kg.
- CD50 SM/Cpd. (compound part) (Proteus vulgaris 347; with SM 25 mg. per kg.): 5.07 mg. per kg.
